Data set [1] relates to CYP1A2. Particulars: cited from earlier work.
Data set [2] concerns the target T1, CYP1A2 (Homo sapiens, UniProt P05177).
T1 sequence (P05177 1-516): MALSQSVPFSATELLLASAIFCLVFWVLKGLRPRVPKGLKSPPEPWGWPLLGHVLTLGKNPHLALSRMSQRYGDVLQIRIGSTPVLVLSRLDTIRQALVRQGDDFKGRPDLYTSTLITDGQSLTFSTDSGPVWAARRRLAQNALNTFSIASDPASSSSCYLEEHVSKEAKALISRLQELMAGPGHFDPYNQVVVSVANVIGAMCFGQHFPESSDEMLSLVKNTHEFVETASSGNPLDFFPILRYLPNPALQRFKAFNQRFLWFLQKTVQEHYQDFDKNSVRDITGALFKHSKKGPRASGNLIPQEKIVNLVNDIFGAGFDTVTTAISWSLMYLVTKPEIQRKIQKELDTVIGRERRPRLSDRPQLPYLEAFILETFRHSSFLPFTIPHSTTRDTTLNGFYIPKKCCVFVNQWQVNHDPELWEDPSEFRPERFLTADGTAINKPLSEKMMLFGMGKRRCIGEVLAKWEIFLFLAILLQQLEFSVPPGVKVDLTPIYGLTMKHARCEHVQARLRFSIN
In words: Inhibition matrix assay. Format: biochemical.

The target of data set [3] is T1, CYP1A2. Particulars: for concentrations at which hCYP1A2 was significantly inhibited: p < 0.05 compared to DMSO control, tested 0.005-1.5 μM.
Data set [4] has as its system CYP1A2. Particulars: human liver microsomes, ethoxyresorufin as substrate; cited from earlier work.
Data set [5] addresses T1, CYP1A2. Briefly: biochemical.
The target in data set [6] is T1, CYP1A2. Briefly: NADPH-dependent and GSH- and SOD-independent inactivation. The following applies: 8 μM isopimpinellin. In kind it is biochemical.
The target of data set [7] is T1, CYP1A2. Briefly: Irreversibility of inactivation. Format: biochemical.
For data set [8], the target named is T1, CYP1A2. In words: Partition ratio by titration of the enzyme with the inactivator. In kind it is biochemical.
In data set [9] the target is T1, CYP1A2. Briefly: Substrate protection. In kind it is biochemical. The following applies: 1.2 μM (KI) isopimpinellin.
The target of data set [10] is T1, CYP1A2.
In data set [11] the target is T1, CYP1A2. Briefly: in vitro.
[12] abbreviates: human liver microsomes, various substrates.

Read-outs that look alike come from different tables or passages of the source. Some results are limits rather than exact numbers.

For `Cc1nc2c([nH]1)c(=O)n(C)c(=O)n2Cc1ccco1` [furafylline], the partition ratio in the data set on CYP1A2 [1] (furafylline-mediated CYP1A2 inactivation in previous studies) is given as […]. In addition, in the data set with CYP1A2 [1] (setting [12]), the Ki was […] and the kinact was […].

On CYP1A2 [2], `CC(C)=CCOc1c2occc2cc2ccc(=O)oc12` [imperatorin] came in with an inhibition constant (Ki) of 7 nM. In addition, the mode of inhibition result on CYP1A2 [2] (Dixon plots of the kinetics data) is listed as “mixed inhibition”. Further, at CYP1A2 [3], the “concentrations at which hCYP1A2 was significantly inhibited” value is at least 5 nM. Besides, the IC50 with CYP1A2 [4] is 380 ± 120 nM; at CYP1A2 [5], 20 nM.

In the case of `COc1c2ccoc2c(OC)c2oc(=O)ccc12` [isopimpinellin], at CYP1A2 [6] (GSH 250 μM), the “effect of GSH on inactivation” value is on record as “GSH failed to protect the hCYP1A2 inactivation”. In addition, at CYP1A2 [6] (SOD 1000 units), the “effect of SOD on inactivation” value is given as “SOD did not prevent hCYP1A2 from inactivation, but rather enhanced the inactivation”. In addition, the “effect of NADPH on inactivation” value at CYP1A2 [6] (with and without 250 μM NADPH) is “the lack of NADPH results in the loss of the inhibitory effect”. Also, the “activity remaining pre- and post-dialysis” value at CYP1A2 [7] (6.4 μM, one assay with six replicates (assay development)) stood at 24 ± 2%. For the same compound, the “activity recovered after dialysis” value on CYP1A2 [7] (8 μM, after 20 h of dialysis) is “approximately 21%”. In addition, the partition ratio on CYP1A2 [8] (0.25-64 μM, preincubation 30 min, extrapolated from lower ratio data points) is 8. Besides, at CYP1A2 [8] (five highest concentration ratios of isopimpinellin to hCYP1A2), the “remaining CYP1A2 activity at high inactivator to enzyme ratios” value is recorded as “no remaining CYP1A2 activity”. For the same compound, the “activity of hCYP1A2” value on CYP1A2 [9] (0 μM methoxyresorufin in preincubation) is recorded as 31.8%; on CYP1A2 [9] (0.4 μM methoxyresorufin in preincubation) it was 33.9%; on CYP1A2 [9] (2.0 μM methoxyresorufin in preincubation) it was 36.9%; at CYP1A2 [9] (10 μM methoxyresorufin in preincubation), 65.4%. Also, the “concentrations at which hCYP1A2 was significantly inhibited” value on CYP1A2 [3] was at least 50 nM. Moreover, on CYP1A2 [10], the “t1/2 (time required for half the enzyme molecules to be inactivated)” value came out at 2.05 ± 0.22 min. The IC50 was 860 ± 180 nM in the data set with CYP1A2 [4] and 460 nM on CYP1A2 [5]. This compound showed a KI (inactivation) on CYP1A2 [11] of 1200 nM. Further, the inactivation rate constant (kinact) on CYP1A2 [11] is 0.00567 s⁻¹. Moreover, on CYP1A2 [11], the kinact/KI was 5000 M⁻¹ s⁻¹.

Take `O=c1ccc2ccc3occc3c2o1` [angelicin]: the “significance of hCYP1A2 inhibition” value at CYP1A2 [3] (p < 0.05, tested 0.5-150 μM) was “significant hCYP1A2 inhibition at all tested concentrations”. For the same compound, the IC50 on CYP1A2 [5] was determined as 9600 nM.

On to `Cc1cc2cc3c(C)cc(=O)oc3c(C)c2o1` [trioxsalen, reference compound], for which, on CYP1A2 [2], affinity was put at a Ki of 100 nM and the mode of inhibition result is listed as “mixed inhibition”. Besides, on CYP1A2 [5], half-maximal inhibition (IC50) was put at 790 nM.

Values taken from publication PMC6263166 (The protein journal, 2011).
